Reference: patent publication US5610174A, “Use of α1A -selective adrenoceptor agonists for the treatment of urinary incontinence” (priority 1995, dated 1997)
Like-named read-outs stand apart in the source and are kept apart here.

How the values were obtained:
human α1B adrenoceptor = molecular target: T1, human α1B adrenoceptor (Homo sapiens, UniProt P35368); assay: Phosphoinositide accumulation in cells expressing α1B; assay type: cell-based; settings: for Emax: read-out: intrinsic activity (i.a.) α1B; for stimulation of inositol phosphate production, α1B: result in words
T1 construct: The entire coding region of the α1B receptor (1563 bp); expressed in transfected cells
T1 sequence (P35368 1-520): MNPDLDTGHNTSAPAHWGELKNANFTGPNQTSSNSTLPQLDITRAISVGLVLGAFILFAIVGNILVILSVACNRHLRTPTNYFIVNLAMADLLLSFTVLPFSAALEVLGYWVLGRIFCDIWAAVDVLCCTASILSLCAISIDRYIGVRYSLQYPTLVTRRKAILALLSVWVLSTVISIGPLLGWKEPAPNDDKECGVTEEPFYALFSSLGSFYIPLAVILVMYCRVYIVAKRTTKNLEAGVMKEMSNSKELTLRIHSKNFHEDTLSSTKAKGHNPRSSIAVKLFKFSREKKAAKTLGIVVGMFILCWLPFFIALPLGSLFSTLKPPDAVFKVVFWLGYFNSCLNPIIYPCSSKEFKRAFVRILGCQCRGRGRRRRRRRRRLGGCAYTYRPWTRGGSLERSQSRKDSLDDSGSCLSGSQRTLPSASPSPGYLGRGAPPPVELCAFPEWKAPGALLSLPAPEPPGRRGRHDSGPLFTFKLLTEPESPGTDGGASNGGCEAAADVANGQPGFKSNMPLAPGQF
Description: α1 -Adrenoceptor-Mediated Phosphoinositide Accumulation in Cultured Cell Lines
The agonist activity of test compounds was assayed by measuring their ability to generate phosphoinositide production in cells stably transfected with each of the three cloned human α1 -adrenoceptor subtypes. Cells were plated in 96-well plates and grown to confluence. The day before the assay the growth medium was changed to 100 μl of medium containing 1% serum and 0.5 μCi [^3 H] myo-inositol, and the plates were incubated overnight in a CO2 incubator (5% CO2 at 37° C.). Immediately before the assay, the medium was removed and replaced by 200 μl of PBS containing 10 mM LiCl, and the cells were equilibrated with the new medium for 20 min. During this interval cells were also equilibrated with the antagonist, added as 10 μl aliquot of a 20-fold concentrated solution in PBS.
The [^3 H] inositol-phosphate (IP) accumulation was started by adding 10 μl of a solution containing the agonist. To the first well 10 μl were added to measure basal accumulation, and 11 different concentrations of agonist were assayed in the following 11 wells of each plate row. All assays were performed in duplicate by repeating the same additions in two consecutive plate rows. The plates were incubated in a CO2 incubator for 1 hr. The reaction was terminated by adding 15 μl of 50% (v/v) trichloroacetic acid (TCA), followed by a 40 min incubation at 4° C.
After neutralizing TCA with 40 μl of 1 M Tris, the content of the wells was transferred to a Multiscreen HV filter plate (Millipore) containing Dowex AG1-X8 (200-400 mesh, formate form). The filter plates were prepared adding 200 μl of Dowex AG1-X8 suspension (50% v/v, water:resin) to each well. The filter plates were placed on a vacuum manifold to wash or eluted the resin bed. Each well was washed 2 times with 200 μl of water, followed by 2×200 μ of 5 mM sodium tetraborate/60 mM ammonium formate. The [3H] IPs were eluted into empty 96-well plates with 200 μl of 1.2 M ammonium formate/0.1 formic acid. The content of the wells was added to 3 mls of scintillation cocktail, and the radioactivity was determined by liquid scintillation counting.

human α1C adrenoceptor = molecular target: T2, human α1C adrenoceptor (Homo sapiens, UniProt P35348); assay: biochemical; assay type: binding
T2 sequence (P35348 1-466): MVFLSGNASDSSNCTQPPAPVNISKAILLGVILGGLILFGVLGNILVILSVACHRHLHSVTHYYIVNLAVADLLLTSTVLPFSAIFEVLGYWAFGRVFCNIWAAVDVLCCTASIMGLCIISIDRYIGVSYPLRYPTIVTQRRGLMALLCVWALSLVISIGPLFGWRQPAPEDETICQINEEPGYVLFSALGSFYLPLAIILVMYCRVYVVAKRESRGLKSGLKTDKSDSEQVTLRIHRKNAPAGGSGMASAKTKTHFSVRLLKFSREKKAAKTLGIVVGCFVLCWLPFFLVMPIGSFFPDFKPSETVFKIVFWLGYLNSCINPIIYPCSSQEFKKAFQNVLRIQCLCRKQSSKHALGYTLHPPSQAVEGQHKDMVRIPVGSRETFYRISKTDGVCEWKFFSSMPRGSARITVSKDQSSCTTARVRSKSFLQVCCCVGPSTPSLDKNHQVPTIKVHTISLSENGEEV
Description: These cell lines were prepared by transfecting the cloned cDNA or cloned genomic DNA or constructs containing both genomic DNA and cDNA encoding the human α-adrenoceptors as follows:
The construct involved ligating three partial overlapping fragments: a 5' 0.6 kb HincII genomic clone, a central 1.8 EcoRI hippocampal cDNA clone, and a 3' 0.6 Kb PstI genomic clone. The hippocampal cDNA fragment overlaps with the 5' and 3' genomic clones so that the HincII and PstI sites at the 5' and 3' ends of the cDNA clone, respectively, were utilized for ligation. This full-length clone was cloned into the KpnI site of the expression vector, using the 5' and 3' KpnI sites of the fragment, derived from vector (i.e., pBluescript) and 3'-untranslated sequences, respectively. Stable cell lines were obtained as described above.
Transfected cells from culture flasks were scraped into 5 ml of 5 mM Tris-HCl, 5 mM EDTA, pH 7.5, and lysed by sonication. The cell lysates were centrifuged at 1000 rpm. for 5 min at 4° C., and the supernatant was centrifuged at 30,000 ×g for 20 min at 4° C. The pellet was suspended in 50 mM Tris-HCl , 1 mM MgCl2, and 0.1% ascorbic acid at pH 7.5. […] The reaction was stopped by filtration through GF/B filters using a cell harvester.

[1] = relative to reference full agonist (e.g., norepinephrine = unity)

Row | Compound | Emax (human α1B adrenoceptor) [%] | EC50 (human α1B adrenoceptor) [µM] | Ki (human α1C adrenoceptor) [µM] | other results
1 | CNCCc1ccc(O)c(NS(C)(=O)=O)c1 [SK&F 102652] | 10 |  |  | stimulation of inositol phosphate production, α1B (human α1B adrenoceptor): virtually inactive
2 | COc1ccc(SC)c2c1C[C@@H]1[C@@H](C2)OCCN1C (relative stereo) [SDZ NVI-085, (±)-trans-4-Methyl-6-methoxy-9-thiomethoxy-3,4,4a, 5,10,10a-hexahydro-2H-naphtho[2,3-b][1,4]oxazine] | 0 |  |  | EC50 (human α1B adrenoceptor; agonist, phosphoinositide accumulation, read-out: pEC50 α1B (converted)): > 100 µM; Ki (human α1C adrenoceptor; Table 3, agonists, read-out: pKi α1C (converted)): 1.26 µM
3 | COc1ccccc1N1CCN(CCCNc2c(C)c(=O)n(C)c(=O)n2C)CC1 [Compound 5-MU] |  |  |  | Ki (human α1C adrenoceptor; Table 2, antagonists, versus 3H-prazosin, read-out: pKI (antagonist affinity, 3H-prazosin binding) hα1C (converted)): 0.002 µM
4 | COc1ccc(OC)c(C(O)CN)c1 (racemic) [ST-1059, (±)-2-Amino-1-(2, 5 dimethoxyphenyl) ethanol] | 10 | 6.31 | 7.94 | 
5 | CNC[C@H](O)c1cccc(O)c1 [(-)-phenylephrine] |  |  |  | Emax (human α1B adrenoceptor; [1]): 90%
6 | CS(=O)(=O)Nc1c(O)ccc2c1CCCC2C1=NCCN1 (racemic) [Compound A-61603, (±)-N-[5-(4,5-Dihydro-1H-imidazol-2-yl)-2-hydroxy-5,6,7,8-tetra-hydronaphthalen-1-yl]methanesulfonamide] |  | 39.8 |  | Emax (human α1B adrenoceptor; [1]): 10%; stimulation of inositol phosphate production, α1B (human α1B adrenoceptor): virtually inactive
7 | COc1cc2c(cc1OC)CN(c1cc(N)c3cc(OC)c(OC)cc3n1)CC2 [Abanoquil, 2-(6,7-Dimethoxy-3,4-dihydro-1H-isoquinolin-2-yl)-6,7-dimethoxyquinolin-4-ylamine hemifumarate hydrate] |  |  |  | pKI (antagonist affinity, 3H-prazosin binding) hα1C (human α1C adrenoceptor; Table 2, antagonists, versus 3H-prazosin): 10.4
8 | CN[C@@H](C)[C@H](O)c1ccccc1 [(-)-ephedrine] | 20 | 100 | 25.1 | 
9 | C[C@H](N)[C@H](O)c1ccccc1 [(-)-norephedrine] | 0 | 31.6 | 15.8 | 
